ChEMBL document CHEMBL1152526, “Synthesis of C(7) modified chrysin derivatives designing to inhibit beta-ketoacyl-acyl carrier protein synthase III (FabH) as antibiotics” (Bioorg Med Chem, 2009)
pIC50: −log10 of the molar value. Converted amounts (≈) assume the structure as drawn.

Tested on: Escherichia coli
Test: Antibacterial activity against Escherichia coli after 24 hrs by MTT assay
Assay type: functional
`O=c1cc(-c2ccccc2)oc2cc(OCCCNCCO)cc(O)c12` showed an MIC of 6.25 µg/mL (≈ 17.6 µM).
With `CCCN(CCC)CCOc1cc(O)c2c(=O)cc(-c3ccccc3)oc2c1` the MIC was > 50 µg/mL.
`CCCNCCOc1cc(O)c2c(=O)cc(-c3ccccc3)oc2c1` gave an MIC of 25 µg/mL (≈ 73.7 µM).
`O=c1cc(-c2ccccc2)oc2cc(OCCN3CCCC3)cc(O)c12` showed an MIC of 6.25 µg/mL (≈ 17.8 µM).
For `CCCCN(CCCC)CCOc1cc(O)c2c(=O)cc(-c3ccccc3)oc2c1`, the MIC was > 50 µg/mL.
In the case of `CCCNCCCOc1cc(O)c2c(=O)cc(-c3ccccc3)oc2c1`, the MIC was 12.5 µg/mL (≈ 35.4 µM).
In the case of `O=c1cc(-c2ccccc2)oc2cc(O)cc(O)c12` [CHRYSIN], the MIC was > 50 µg/mL.
`O=c1cc(-c2ccccc2)oc2cc(OCCCN3CCNCC3)cc(O)c12` showed an MIC of 3.13 µg/mL (≈ 8.23 µM).
Compound `O=c1cc(-c2ccccc2)oc2cc(OCCN3CCCCC3)cc(O)c12` has an MIC of 12.5 µg/mL (≈ 34.2 µM).
For `CCCCN(CCCC)CCCOc1cc(O)c2c(=O)cc(-c3ccccc3)oc2c1`, the MIC was > 50 µg/mL.
`NC[C@H]1O[C@H](O[C@H]2[C@H](O)[C@@H](O[C@H]3O[C@H](CO)[C@@H](O)[C@H](N)[C@H]3O)[C@H](N)C[C@@H]2N)[C@H](N)[C@@H](O)[C@@H]1O` [BEKANAMYCIN] gave an MIC of 3.13 µg/mL (≈ 6.47 µM).
Work on `CCCCNCCCOc1cc(O)c2c(=O)cc(-c3ccccc3)oc2c1` yielded an MIC of 12.5 µg/mL (≈ 34 µM).
With `NCCCNCCOc1cc(O)c2c(=O)cc(-c3ccccc3)oc2c1` the MIC was > 50 µg/mL.
With `CN1CCN(CCOc2cc(O)c3c(=O)cc(-c4ccccc4)oc3c2)CC1` the MIC was 12.5 µg/mL (≈ 32.9 µM).
In the case of `CCN(CC)CCOc1cc(O)c2c(=O)cc(-c3ccccc3)oc2c1`, the MIC was > 50 µg/mL.
`CN1CCN(CCCOc2cc(O)c3c(=O)cc(-c4ccccc4)oc3c2)CC1` gave an MIC of 6.25 µg/mL (≈ 15.8 µM).
Work on `CCCN(CCC)CCCOc1cc(O)c2c(=O)cc(-c3ccccc3)oc2c1` yielded an MIC of 25 µg/mL (≈ 63.2 µM).
In the case of `CCN(CC)CCCOc1cc(O)c2c(=O)cc(-c3ccccc3)oc2c1`, the MIC was > 50 µg/mL.
Compound `O=c1cc(-c2ccccc2)oc2cc(OCCCN3CCCC3)cc(O)c12` has an MIC of 1.56 µg/mL (≈ 4.27 µM).
Work on `O=c1cc(-c2ccccc2)oc2cc(OCCN3CCNCC3)cc(O)c12` yielded an MIC of 12.5 µg/mL (≈ 34.1 µM).

Tested on: Pseudomonas fluorescens
Test: Antibacterial activity against Pseudomonas fluorescens after 24 hrs by MTT assay
Assay type: functional
`O=c1cc(-c2ccccc2)oc2cc(OCCCNCCO)cc(O)c12` gave an MIC of 12.5 µg/mL (≈ 35.2 µM).
With `CCCN(CCC)CCOc1cc(O)c2c(=O)cc(-c3ccccc3)oc2c1` the MIC was > 50 µg/mL.
With `CCCNCCOc1cc(O)c2c(=O)cc(-c3ccccc3)oc2c1` the MIC was 25 µg/mL (≈ 73.7 µM).
Work on `O=c1cc(-c2ccccc2)oc2cc(OCCN3CCCC3)cc(O)c12` yielded an MIC of 12.5 µg/mL (≈ 35.6 µM).
In the case of `CCCCN(CCCC)CCOc1cc(O)c2c(=O)cc(-c3ccccc3)oc2c1`, the MIC was > 50 µg/mL.
For `CCCNCCCOc1cc(O)c2c(=O)cc(-c3ccccc3)oc2c1`, the MIC was 12.5 µg/mL (≈ 35.4 µM).
In the case of `O=c1cc(-c2ccccc2)oc2cc(O)cc(O)c12` [CHRYSIN], the MIC was > 50 µg/mL.
`O=c1cc(-c2ccccc2)oc2cc(OCCCN3CCNCC3)cc(O)c12` gave an MIC of 12.5 µg/mL (≈ 32.9 µM).
`O=c1cc(-c2ccccc2)oc2cc(OCCN3CCCCC3)cc(O)c12` gave an MIC of 12.5 µg/mL (≈ 34.2 µM).
With `CCCCN(CCCC)CCCOc1cc(O)c2c(=O)cc(-c3ccccc3)oc2c1` the MIC was > 50 µg/mL.
For `NC[C@H]1O[C@H](O[C@H]2[C@H](O)[C@@H](O[C@H]3O[C@H](CO)[C@@H](O)[C@H](N)[C@H]3O)[C@H](N)C[C@@H]2N)[C@H](N)[C@@H](O)[C@@H]1O` [BEKANAMYCIN], the MIC was 3.13 µg/mL (≈ 6.47 µM).
`CCCCNCCCOc1cc(O)c2c(=O)cc(-c3ccccc3)oc2c1` showed an MIC of 12.5 µg/mL (≈ 34 µM).
For `NCCCNCCOc1cc(O)c2c(=O)cc(-c3ccccc3)oc2c1`, the MIC was > 50 µg/mL.
In the case of `CN1CCN(CCOc2cc(O)c3c(=O)cc(-c4ccccc4)oc3c2)CC1`, the MIC was 25 µg/mL (≈ 65.7 µM).
For `CCN(CC)CCOc1cc(O)c2c(=O)cc(-c3ccccc3)oc2c1`, the MIC was > 50 µg/mL.
For `CN1CCN(CCCOc2cc(O)c3c(=O)cc(-c4ccccc4)oc3c2)CC1`, the MIC was 12.5 µg/mL (≈ 31.7 µM).
With `CCCN(CCC)CCCOc1cc(O)c2c(=O)cc(-c3ccccc3)oc2c1` the MIC was 25 µg/mL (≈ 63.2 µM).
With `CCN(CC)CCCOc1cc(O)c2c(=O)cc(-c3ccccc3)oc2c1` the MIC was > 50 µg/mL.
`O=c1cc(-c2ccccc2)oc2cc(OCCCN3CCCC3)cc(O)c12` gave an MIC of 6.25 µg/mL (≈ 17.1 µM).
For `O=c1cc(-c2ccccc2)oc2cc(OCCN3CCNCC3)cc(O)c12`, the MIC was 6.25 µg/mL (≈ 17.1 µM).

Tested on: Bacillus subtilis
Test: Antibacterial activity against Bacillus subtilis after 24 hrs by MTT assay
Assay type: functional
In the case of `O=c1cc(-c2ccccc2)oc2cc(OCCCNCCO)cc(O)c12`, the MIC was 12.5 µg/mL (≈ 35.2 µM).
For `CCCN(CCC)CCOc1cc(O)c2c(=O)cc(-c3ccccc3)oc2c1`, the MIC was > 50 µg/mL.
`CCCNCCOc1cc(O)c2c(=O)cc(-c3ccccc3)oc2c1` showed an MIC of 50 µg/mL (≈ 147 µM).
`O=c1cc(-c2ccccc2)oc2cc(OCCN3CCCC3)cc(O)c12` gave an MIC of 25 µg/mL (≈ 71.1 µM).
With `CCCCN(CCCC)CCOc1cc(O)c2c(=O)cc(-c3ccccc3)oc2c1` the MIC was > 50 µg/mL.
`CCCNCCCOc1cc(O)c2c(=O)cc(-c3ccccc3)oc2c1` gave an MIC of 25 µg/mL (≈ 70.7 µM).
In the case of `O=c1cc(-c2ccccc2)oc2cc(O)cc(O)c12` [CHRYSIN], the MIC was > 50 µg/mL.
For `O=c1cc(-c2ccccc2)oc2cc(OCCCN3CCNCC3)cc(O)c12`, the MIC was 12.5 µg/mL (≈ 32.9 µM).
`O=c1cc(-c2ccccc2)oc2cc(OCCN3CCCCC3)cc(O)c12` gave an MIC of 25 µg/mL (≈ 68.4 µM).
For `CCCCN(CCCC)CCCOc1cc(O)c2c(=O)cc(-c3ccccc3)oc2c1`, the MIC was > 50 µg/mL.
Work on `NC[C@H]1O[C@H](O[C@H]2[C@H](O)[C@@H](O[C@H]3O[C@H](CO)[C@@H](O)[C@H](N)[C@H]3O)[C@H](N)C[C@@H]2N)[C@H](N)[C@@H](O)[C@@H]1O` [BEKANAMYCIN] yielded an MIC of 1.56 µg/mL (≈ 3.23 µM).
`CCCCNCCCOc1cc(O)c2c(=O)cc(-c3ccccc3)oc2c1` showed an MIC of 25 µg/mL (≈ 68 µM).
In the case of `NCCCNCCOc1cc(O)c2c(=O)cc(-c3ccccc3)oc2c1`, the MIC was > 50 µg/mL.
Work on `CN1CCN(CCOc2cc(O)c3c(=O)cc(-c4ccccc4)oc3c2)CC1` yielded an MIC of 50 µg/mL (≈ 131 µM).
For `CCN(CC)CCOc1cc(O)c2c(=O)cc(-c3ccccc3)oc2c1`, the MIC was > 50 µg/mL.
Work on `CN1CCN(CCCOc2cc(O)c3c(=O)cc(-c4ccccc4)oc3c2)CC1` yielded an MIC of 6.25 µg/mL (≈ 15.8 µM).
Work on `CCCN(CCC)CCCOc1cc(O)c2c(=O)cc(-c3ccccc3)oc2c1` yielded an MIC of 25 µg/mL (≈ 63.2 µM).
With `CCN(CC)CCCOc1cc(O)c2c(=O)cc(-c3ccccc3)oc2c1` the MIC was > 50 µg/mL.
`O=c1cc(-c2ccccc2)oc2cc(OCCCN3CCCC3)cc(O)c12` gave an MIC of 6.25 µg/mL (≈ 17.1 µM).
In the case of `O=c1cc(-c2ccccc2)oc2cc(OCCN3CCNCC3)cc(O)c12`, the MIC was 25 µg/mL (≈ 68.2 µM).

Tested on: Staphylococcus aureus
Test: Antibacterial activity against Staphylococcus aureus after 24 hrs by MTT assay
Assay type: functional
`O=c1cc(-c2ccccc2)oc2cc(OCCCNCCO)cc(O)c12` showed an MIC of 25 µg/mL (≈ 70.3 µM).
For `CCCN(CCC)CCOc1cc(O)c2c(=O)cc(-c3ccccc3)oc2c1`, the MIC was > 50 µg/mL.
With `CCCNCCOc1cc(O)c2c(=O)cc(-c3ccccc3)oc2c1` the MIC was 50 µg/mL (≈ 147 µM).
`O=c1cc(-c2ccccc2)oc2cc(OCCN3CCCC3)cc(O)c12` showed an MIC of 25 µg/mL (≈ 71.1 µM).
For `CCCCN(CCCC)CCOc1cc(O)c2c(=O)cc(-c3ccccc3)oc2c1`, the MIC was > 50 µg/mL.
With `CCCNCCCOc1cc(O)c2c(=O)cc(-c3ccccc3)oc2c1` the MIC was 12.5 µg/mL (≈ 35.4 µM).
In the case of `O=c1cc(-c2ccccc2)oc2cc(O)cc(O)c12` [CHRYSIN], the MIC was > 50 µg/mL.
`O=c1cc(-c2ccccc2)oc2cc(OCCCN3CCNCC3)cc(O)c12` gave an MIC of 6.25 µg/mL (≈ 16.4 µM).
For `O=c1cc(-c2ccccc2)oc2cc(OCCN3CCCCC3)cc(O)c12`, the MIC was 12.5 µg/mL (≈ 34.2 µM).
In the case of `CCCCN(CCCC)CCCOc1cc(O)c2c(=O)cc(-c3ccccc3)oc2c1`, the MIC was > 50 µg/mL.
`NC[C@H]1O[C@H](O[C@H]2[C@H](O)[C@@H](O[C@H]3O[C@H](CO)[C@@H](O)[C@H](N)[C@H]3O)[C@H](N)C[C@@H]2N)[C@H](N)[C@@H](O)[C@@H]1O` [BEKANAMYCIN] showed an MIC of 1.56 µg/mL (≈ 3.23 µM).
Work on `CCCCNCCCOc1cc(O)c2c(=O)cc(-c3ccccc3)oc2c1` yielded an MIC of 12.5 µg/mL (≈ 34 µM).
For `NCCCNCCOc1cc(O)c2c(=O)cc(-c3ccccc3)oc2c1`, the MIC was > 50 µg/mL.
Work on `CN1CCN(CCOc2cc(O)c3c(=O)cc(-c4ccccc4)oc3c2)CC1` yielded an MIC of 25 µg/mL (≈ 65.7 µM).
For `CCN(CC)CCOc1cc(O)c2c(=O)cc(-c3ccccc3)oc2c1`, the MIC was > 50 µg/mL.
In the case of `CN1CCN(CCCOc2cc(O)c3c(=O)cc(-c4ccccc4)oc3c2)CC1`, the MIC was 3.13 µg/mL (≈ 7.93 µM).
With `CCCN(CCC)CCCOc1cc(O)c2c(=O)cc(-c3ccccc3)oc2c1` the MIC was > 50 µg/mL.
In the case of `CCN(CC)CCCOc1cc(O)c2c(=O)cc(-c3ccccc3)oc2c1`, the MIC was > 50 µg/mL.
Compound `O=c1cc(-c2ccccc2)oc2cc(OCCCN3CCCC3)cc(O)c12` has an MIC of 3.13 µg/mL (≈ 8.57 µM).
With `O=c1cc(-c2ccccc2)oc2cc(OCCN3CCNCC3)cc(O)c12` the MIC was 25 µg/mL (≈ 68.2 µM).

Tested on: not listed separately
Test: Inhibition of Escherichia coli FabH overexpressed in Escherichia coli DH10B cells by liquid scintillation counting
Work on `CCCNCCOc1cc(O)c2c(=O)cc(-c3ccccc3)oc2c1` yielded a pIC50 of 4.27.
Work on `O=c1cc(-c2ccccc2)oc2cc(OCCCN3CCNCC3)cc(O)c12` yielded a pIC50 of 5.18.
With `CCN(CC)CCOc1cc(O)c2c(=O)cc(-c3ccccc3)oc2c1` the pIC50 was 4.15.
`CN1CCN(CCCOc2cc(O)c3c(=O)cc(-c4ccccc4)oc3c2)CC1` showed a pIC50 of 5.28.
In the case of `O=c1cc(-c2ccccc2)oc2cc(OCCCN3CCCC3)cc(O)c12`, the pIC50 was 5.51.
For `O=c1cc(-c2ccccc2)oc2cc(OCCN3CCNCC3)cc(O)c12`, the pIC50 was 4.95.
